Counter-ions that a name gives are not always drawn.
Test: Effect of crystallization inhibitor on guanfacine HCl solubility (clear vs precipitate on storage)
Assay type: physicochemical
Settings: in the presence of polyvinyl pyrrolidone vs comparison formulation without polyvinyl pyrrolidone
Excerpt: As crystallization inhibitors, highly dispersed silicon dioxide or macromolecular substances are suitable.

- tendency toward crystal formation: less tendency toward crystal formation
Compound: N=C(N)NC(=O)Cc1c(Cl)cccc1Cl [guanfacine, guanfacine hydrochloride]
